Laboratory results from the NIST ThermoML archive (doi:10.1016/j.fluid.2014.10.004).
Numbers after ± are expanded uncertainties.

How the values were obtained:
[1] = xn = mol fraction of the nth substance listed; settings: 101.3 kPa, Liquid, Sing-around technique in a fixed-path interferometer
[2] = refractive index (Na D-line) (dimensionless); xn = mol fraction of the nth substance listed; settings: 101.3 kPa, Liquid, Standard Abbe refractometry

CC(Cl)(Cl)Cl [1,1,1-trichloroethane] + C[N+](=O)[O-]
Settings	refractive index, 298.15 K	refractive index, 308.15 K	refractive index, 318.15 K	speed of sound, 298.15 K [m/s]	speed of sound, 308.15 K [m/s]	speed of sound, 318.15 K [m/s]
[1], x1 = 0.0921	–	–	–	1258.6 ± 1.7	1219.9 ± 1.7	1181.4 ± 1.7
[1], x1 = 0.1727	–	–	–	1211.5 ± 1.7	1173.7 ± 1.7	1136 ± 1.7
[1], x1 = 0.2614	–	–	–	1166.3 ± 1.7	1129.1 ± 1.7	1092.1 ± 1.7
[1], x1 = 0.3951	–	–	–	1109.8 ± 1.6	1073.5 ± 1.6	1037.3 ± 1.6
[1], x1 = 0.4862	–	–	–	1079.3 ± 1.6	1043.4 ± 1.6	1007.6 ± 1.6
[1], x1 = 0.5904	–	–	–	1048.7 ± 1.6	1013.2 ± 1.6	977.89 ± 1.6
[1], x1 = 0.7066	–	–	–	1019.3 ± 1.6	984.72 ± 1.6	949.76 ± 1.6
[1], x1 = 0.8358	–	–	–	992.76 ± 1.5	957.84 ± 1.5	923.21 ± 1.5
[1], x1 = 0.9012	–	–	–	980.43 ± 1.5	945.74 ± 1.5	911.39 ± 1.5
[1], x1 = 1	–	–	–	962.94 ± 1.5	928.68 ± 1.5	894.71 ± 1.5
[2], x1 = 0.0921	1.38777 ± 0.0004	1.38231 ± 0.0004	1.37702 ± 0.0004	–	–	–
[2], x1 = 0.1727	1.39427 ± 0.0004	1.38809 ± 0.0004	1.38239 ± 0.0004	–	–	–
[2], x1 = 0.2614	1.4006 ± 0.0004	1.39442 ± 0.0004	1.3887 ± 0.0004	–	–	–
[2], x1 = 0.3951	1.40894 ± 0.00039	1.40268 ± 0.00039	1.39695 ± 0.00039	–	–	–
[2], x1 = 0.4862	1.41396 ± 0.00039	1.40768 ± 0.00039	1.40208 ± 0.00039	–	–	–
[2], x1 = 0.5904	1.41903 ± 0.00038	1.41302 ± 0.00038	1.40727 ± 0.00038	–	–	–
[2], x1 = 0.7066	1.42412 ± 0.00038	1.41834 ± 0.00038	1.41249 ± 0.00038	–	–	–
[2], x1 = 0.8358	1.42923 ± 0.00037	1.42338 ± 0.00037	1.41753 ± 0.00037	–	–	–
[2], x1 = 0.9012	1.43156 ± 0.00037	1.42575 ± 0.00037	1.41987 ± 0.00037	–	–	–
[2], x1 = 1	1.43492 ± 0.00037	1.42908 ± 0.00037	1.42311 ± 0.00037	–	–	–

ClC(Cl)C(Cl)Cl [1,1,2,2-tetrachloroethane] + C[N+](=O)[O-]
Settings	refractive index, 298.15 K	refractive index, 308.15 K	refractive index, 318.15 K	speed of sound, 298.15 K [m/s]	speed of sound, 308.15 K [m/s]	speed of sound, 318.15 K [m/s]
[1], x1 = 0.0711	–	–	–	1293.1 ± 1.8	1254.8 ± 1.8	1216.6 ± 1.8
[1], x1 = 0.1888	–	–	–	1257.7 ± 1.9	1220.8 ± 1.8	1184.5 ± 1.8
[1], x1 = 0.2563	–	–	–	1241.8 ± 1.9	1205.8 ± 1.9	1170 ± 1.9
[1], x1 = 0.3464	–	–	–	1224.1 ± 1.9	1189.1 ± 1.9	1154.2 ± 1.9
[1], x1 = 0.4341	–	–	–	1209.8 ± 2	1175.4 ± 2	1141.1 ± 2
[1], x1 = 0.5431	–	–	–	1194.8 ± 2	1161.1 ± 2	1127.6 ± 2
[1], x1 = 0.6654	–	–	–	1180.7 ± 2.1	1147.6 ± 2.1	1114.7 ± 2.1
[1], x1 = 0.8211	–	–	–	1165.3 ± 2.2	1133 ± 2.2	1100.8 ± 2.2
[1], x1 = 0.9285	–	–	–	1156.2 ± 2.3	1124.2 ± 2.3	1092.3 ± 2.3
[1], x1 = 1	–	–	–	1150.6 ± 2.3	1118.7 ± 2.3	1087 ± 2.3
[2], x1 = 0.0711	1.39391 ± 0.00042	1.3893 ± 0.0004	1.38479 ± 0.00042	–	–	–
[2], x1 = 0.1888	1.41442 ± 0.00043	1.4099 ± 0.0004	1.40582 ± 0.00043	–	–	–
[2], x1 = 0.2563	1.42485 ± 0.00043	1.42025 ± 0.00043	1.4162 ± 0.0004	–	–	–
[2], x1 = 0.3464	1.43683 ± 0.00044	1.43222 ± 0.00044	1.42805 ± 0.00044	–	–	–
[2], x1 = 0.4341	1.44721 ± 0.00045	1.4425 ± 0.0005	1.43807 ± 0.00045	–	–	–
[2], x1 = 0.5431	1.45848 ± 0.00046	1.45366 ± 0.00046	1.44909 ± 0.00046	–	–	–
[2], x1 = 0.6654	1.46937 ± 0.00047	1.46448 ± 0.00047	1.4596 ± 0.0005	–	–	–
[2], x1 = 0.8211	1.48094 ± 0.00049	1.47589 ± 0.00049	1.47087 ± 0.00049	–	–	–
[2], x1 = 0.9285	1.48772 ± 0.0005	1.48262 ± 0.0005	1.47752 ± 0.0005	–	–	–
[2], x1 = 1	1.49174 ± 0.00051	1.48654 ± 0.00051	1.48137 ± 0.00051	–	–	–

ClCCCl [1,2-dichloroethane] + C[N+](=O)[O-]
x1 = 1
Settings	refractive index, 298.15 K	refractive index, 308.15 K	refractive index, 318.15 K	speed of sound, 298.15 K [m/s]	speed of sound, 308.15 K [m/s]	speed of sound, 318.15 K [m/s]
[1]	–	–	–	1194.4 ± 1.2	1156.1 ± 1.2	1117.8 ± 1.1
[2]	1.44206 ± 0.00031	1.43661 ± 0.00031	1.43109 ± 0.00031	–	–	–

ClCCCCl [1,3-dichloropropane] + C[N+](=O)[O-]
Settings	refractive index, 298.15 K	refractive index, 308.15 K	refractive index, 318.15 K	speed of sound, 298.15 K [m/s]	speed of sound, 308.15 K [m/s]	speed of sound, 318.15 K [m/s]
[1], x1 = 0.0878	–	–	–	1303 ± 1.7	1264 ± 1.7	1225 ± 1.7
[1], x1 = 0.1939	–	–	–	1285.9 ± 1.6	1247.3 ± 1.6	1208.9 ± 1.6
[1], x1 = 0.2938	–	–	–	1273.6 ± 1.6	1235.4 ± 1.6	1197.3 ± 1.6
[1], x1 = 0.3998	–	–	–	1263.5 ± 1.5	1225.6 ± 1.5	1187.8 ± 1.5
[1], x1 = 0.5028	–	–	–	1255.9 ± 1.4	1218.2 ± 1.4	1180.7 ± 1.4
[1], x1 = 0.6154	–	–	–	1249.4 ± 1.4	1212 ± 1.4	1174.8 ± 1.4
[1], x1 = 0.7207	–	–	–	1244.7 ± 1.3	1207.5 ± 1.3	1170.5 ± 1.3
[1], x1 = 0.8326	–	–	–	1240.8 ± 1.3	1203.8 ± 1.3	1167 ± 1.3
[1], x1 = 0.9404	–	–	–	1237.9 ± 1.2	1201 ± 1.2	1164.4 ± 1.2
[1], x1 = 1	–	–	–	1236.5 ± 1.2	1199.7 ± 1.2	1163.2 ± 1.2
[2], x1 = 0.0878	1.38808 ± 0.0004	1.38325 ± 0.0004	1.37861 ± 0.0004	–	–	–
[2], x1 = 0.1939	1.39757 ± 0.00038	1.39278 ± 0.00038	1.38807 ± 0.00038	–	–	–
[2], x1 = 0.2938	1.40567 ± 0.00037	1.40095 ± 0.00037	1.39632 ± 0.00037	–	–	–
[2], x1 = 0.3998	1.41335 ± 0.00036	1.40869 ± 0.00036	1.40422 ± 0.00036	–	–	–
[2], x1 = 0.5028	1.42017 ± 0.00035	1.41551 ± 0.00035	1.41092 ± 0.00035	–	–	–
[2], x1 = 0.6154	1.42699 ± 0.00034	1.42236 ± 0.00034	1.41782 ± 0.00034	–	–	–
[2], x1 = 0.7207	1.43278 ± 0.00034	1.42826 ± 0.00034	1.4234 ± 0.0003	–	–	–
[2], x1 = 0.8326	1.43844 ± 0.00033	1.43358 ± 0.00033	1.42879 ± 0.00033	–	–	–
[2], x1 = 0.9404	1.44348 ± 0.00032	1.43846 ± 0.00032	1.43349 ± 0.00032	–	–	–
[2], x1 = 1	1.44617 ± 0.00032	1.44123 ± 0.00032	1.43614 ± 0.00032	–	–	–
